Data: patent US5190741A, “Agents for diagnosing and treating melanomas, aromatic halogenated derivatives usable as such agents and their preparation” (Institut National de la Sante et de la Recherche Medicale …, priority 1989, dated 1993)
Like-named read-outs stand apart in the source and are kept apart here.

Assays:
[1] = Tissue distribution in Swiss nu/nu SSCUP mice bearing Beu; format: in vivo, human; conditions: mouse, iv, 3 umol/animal
Description: The study of the tissue distribution of the ^125 I labelled compounds was performed in mice bearing grafted melanomas (cf. autoradiograms above). […] The animals are sacrificed at different time intervals of 1 to 24 hours after the injection. The blood is collected and the principal organs are excised. Aliquots are weighed and the radioactivity of the samples is measured in a […] 1191 counter (analytic tracer). The counting yield for iodine 125 is 60%. The results are expressed: as a percentage of the injected dose bound per g of tissue (% ID/g); in the form of the ratios [formula] This ratio reflects more precisely the selectivity of a molecule for an organ (tables 2, 4, 6, 8, 10 and 12).

[2] = system: EMT6 tumor (spontaneous mammary carcinoma of mice); test: Scintillation imaging (specificity), BALB mice; format: in vivo, mouse
Description: (§1) The mice bearing grafted tumors are anesthetized by the i.p. injection of sodium pentobarbital 1/5 and immobilized under a scintillation camera (Gammatome II, CGR) equipped with a pinhole 3-360 collimator, sensitivity 3.2 10^-4.

[3] = LD50 determination, i.v. (Karber and Behrens); conditions: mouse, in vivo, iv
Description: (§2) The determination of the LD50 is made in the mouse after i.v. injection of the molecules according to the methodology described by Karber and Behrens.
(§3) 6 weeks old male nu/nu SSCUP nude mice, […]

[4] = system: 6 weeks old male nu/nu SSCUP nude mice; test: LD50 determination, i.v. (Karber and Behrens); conditions: mouse, in vivo, iv
Description: as §2, §3

[5] = system: SW 948 (adenocarcinoma of the colon); test: Scintillation imaging (specificity), nu/nu SSCUP nude mice; format: in vivo; conditions: after injection of A
Description: as §1

[6] = system: A 431 (tumor of the vulva); test: as above; format: in vivo; conditions: after injection of A
Description: as §1

[7] = intestine, read-out: intestine % ID/g
[8] = kidney, read-out: kidney % ID/g
[9] = muscle, read-out: muscle % ID/g
[10] = pancreas, read-out: pancreas % ID/g
[11] = plasma, read-out: plasma % ID/g
[12] = spleen, read-out: spleen % ID/g
[13] = stomach, read-out: stomach % ID/g
[14] = submaxillary glands, read-out: submaxillary glands % ID/g

## CCN(CC)CCNC(=O)c1ccc(I)cc1 [Derivative A, N-(2-diethylaminoethyl) 4-iodo benzamide]
[1]; blood, read-out: blood % ID/g
  tissue uptake at 1 h: 0.87 %ID/g
  tissue uptake at 2 h: 0.53 %ID/g
  tissue uptake at 4 h: 0.32 %ID/g
  tissue uptake at 6 h: 0.13 %ID/g
  tissue uptake at 24 h: 0.01 %ID/g
  tissue uptake at 12 h: 0.02 %ID/g
[1]; blood, 8 h, read-out: blood % ID/g
  tissue uptake at 8 h: 0.05 %ID/g
[1]; brain, read-out: brain % ID/g
  tissue uptake at 1 h: 1.66 %ID/g
  tissue uptake at 2 h: 1.13 %ID/g
  tissue uptake at 4 h: 0.78 %ID/g
  tissue uptake at 6 h: 0.28 %ID/g
  tissue uptake at 24 h: 0.006 %ID/g
  tissue uptake at 12 h: 0.01 %ID/g
[1]; brain, 8 h, read-out: brain % ID/g
  tissue uptake at 8 h: 0.13 %ID/g
[1]; eye, read-out: eye % ID/g
  tissue uptake at 1 h: 0.64 %ID/g
  tissue uptake at 2 h: 0.56 %ID/g
  tissue uptake at 4 h: 0.34 %ID/g
  tissue uptake at 6 h: 0.13 %ID/g
  tissue uptake at 24 h: 0.03 %ID/g
  tissue uptake at 12 h: 0.03 %ID/g
[1]; eye, 8 h, read-out: eye % ID/g
  tissue uptake at 8 h: 0.07 %ID/g
[1]; [7]
  tissue uptake at 1 h: 3.76 %ID/g
  tissue uptake at 2 h: 2.35 %ID/g
  tissue uptake at 4 h: 1.56 %ID/g
  tissue uptake at 6 h: 0.52 %ID/g
  tissue uptake at 12 h: 0.08 %ID/g
  tissue uptake at 24 h: 0.03 %ID/g
[1]; intestine, 8 h, read-out: intestine % ID/g
  tissue uptake at 8 h: 0.15 %ID/g
[1]; [8]
  tissue uptake at 1 h: 7.63 %ID/g
  tissue uptake at 2 h: 5.9 %ID/g
  tissue uptake at 4 h: 4.28 %ID/g
  tissue uptake at 6 h: 0.99 %ID/g
  tissue uptake at 24 h: 0.06 %ID/g
  tissue uptake at 12 h: 0.1 %ID/g
[1]; kidney, 8 h, read-out: kidney % ID/g
  tissue uptake at 8 h: 0.28 %ID/g
[1]; liver, read-out: liver % ID/g
  tissue uptake at 1 h: 5.27 %ID/g
  tissue uptake at 2 h: 3.5 %ID/g
  tissue uptake at 4 h: 2.28 %ID/g
  tissue uptake at 6 h: 0.94 %ID/g
  tissue uptake at 24 h: 0.13 %ID/g
  tissue uptake at 12 h: 0.28 %ID/g
[1]; liver, 8 h, read-out: liver % ID/g
  tissue uptake at 8 h: 0.52 %ID/g
[1]; lungs, read-out: lungs % ID/g
  tissue uptake at 1 h: 7.77 %ID/g
  tissue uptake at 2 h: 4.71 %ID/g
  tissue uptake at 4 h: 3.6 %ID/g
  tissue uptake at 6 h: 1.25 %ID/g
  tissue uptake at 12 h: 0.08 %ID/g
  tissue uptake at 24 h: 0.05 %ID/g
[1]; lungs, 8 h, read-out: lungs % ID/g
  tissue uptake at 8 h: 0.35 %ID/g
[1]; [9]
  tissue uptake at 1 h: 1.3 %ID/g
  tissue uptake at 2 h: 0.93 %ID/g
  tissue uptake at 4 h: 0.51 %ID/g
  tissue uptake at 6 h: 0.33 %ID/g
  tissue uptake at 24 h: 0.01 %ID/g
  tissue uptake at 12 h: 0.01 %ID/g
[1]; muscle, 8 h, read-out: muscle % ID/g
  tissue uptake at 8 h: 0.08 %ID/g
[1]; [10]
  tissue uptake at 1 h: 3.99 %ID/g
  tissue uptake at 2 h: 2.28 %ID/g
  tissue uptake at 4 h: 1.39 %ID/g
  tissue uptake at 6 h: 0.36 %ID/g
  tissue uptake at 12 h: 0.06 %ID/g
  tissue uptake at 24 h: 0.05 %ID/g
[1]; pancreas, 8 h, read-out: pancreas % ID/g
  tissue uptake at 8 h: 0.12 %ID/g
[1]; [11]
  tissue uptake at 1 h: 0.46 %ID/g
  tissue uptake at 2 h: 0.35 %ID/g
  tissue uptake at 4 h: 0.2 %ID/g
  tissue uptake at 6 h: 0.12 %ID/g
  tissue uptake at 24 h: 0.01 %ID/g
  tissue uptake at 12 h: 0.02 %ID/g
[1]; plasma, 8 h, read-out: plasma % ID/g
  tissue uptake at 8 h: 0.04 %ID/g
[1]; [12]
  tissue uptake at 1 h: 4.11 %ID/g
  tissue uptake at 2 h: 2.12 %ID/g
  tissue uptake at 4 h: 1.07 %ID/g
  tissue uptake at 6 h: 0.28 %ID/g
  tissue uptake at 12 h: 0.04 %ID/g
  tissue uptake at 24 h: 0.02 %ID/g
[1]; spleen, 8 h, read-out: spleen % ID/g
  tissue uptake at 8 h: 0.11 %ID/g
[1]; [13]
  tissue uptake at 1 h: 2.49 %ID/g
  tissue uptake at 2 h: 1.51 %ID/g
  tissue uptake at 4 h: 1.16 %ID/g
  tissue uptake at 6 h: 0.49 %ID/g
  tissue uptake at 12 h: 0.07 %ID/g
  tissue uptake at 24 h: 0.04 %ID/g
[1]; stomach, 8 h, read-out: stomach % ID/g
  tissue uptake at 8 h: 0.22 %ID/g
[1]; [14]
  tissue uptake at 1 h: 5.11 %ID/g
  tissue uptake at 2 h: 2.9 %ID/g
  tissue uptake at 4 h: 1.71 %ID/g
  tissue uptake at 6 h: 0.95 %ID/g
  tissue uptake at 12 h: 0.04 %ID/g
  tissue uptake at 24 h: 0.03 %ID/g
[1]; submaxillary glands, 8 h, read-out: submaxillary glands % ID/g
  tissue uptake at 8 h: 0.24 %ID/g
[1]; tumor, read-out: tumor % ID/g
  tissue uptake at 1 h: 3.51 %ID/g
  tissue uptake at 2 h: 3.17 %ID/g
  tissue uptake at 4 h: 3.25 %ID/g
  tissue uptake at 6 h: 1.96 %ID/g
  tissue uptake at 24 h: 0.07 %ID/g
  tissue uptake at 12 h: 0.36 %ID/g
[1]; tumor, up to 8 hours, Beu, read-out: intratumoral concentration
  tissue uptake at 8 h: > 1 %ID/g
[1]; tumor, 8 h, read-out: tumor % ID/g
  tissue uptake at 8 h: 1.07 %ID/g
[2]; ^123 I label
  tumor image: absence of images
[2]; after injection of A
  tumor image: not obtained any image
[3]
  LD50: 90 mg/kg
[4]
  LD 0: 60 mg/kg
  LD 100: 150 mg/kg
[5]
  tumor image: not obtained any image
[6]
  tumor image: not obtained any image
